Measurements published in patent US20240060133A1, “METHODS FOR IDENTIFICATION AND TREATMENT OF BLEEDING IN ANIMALS” (WASHINGTON STATE UNIVERSITY, priority 2021, published 2024).
Blank lines part the entries; values can stand above or below the compound they belong to.

Tests used:
[1] = tested on: delayed postoperative bleeding in Scottish deerhounds; assay: Scottish deerhound cases with delayed postoperative bleeding (health survey and veterinary records); format: in vivo, Scottish deerhound dogs; conditions: for hematocrit and platelet counts: SDH-2, 750 mg intravenous infusion; for hematocrit: SDH-4, continuous intravenous infusion plus transfusions of whole blood and plasma
Source text: For the instant example, Scottish deerhounds with delayed postoperative bleeding and matched controls were identified through a survey distributed to members of the Scottish Deerhound Club of America. A subsection of this survey requested information regarding the surgical history of the dogs, occurrence of postoperative bleeding complications, and perioperative administration of antifibrinolytic drugs (EACA or tranexamic acid). A diagnosis of delayed postoperative bleeding, defined as unexpected bleeding from a surgical wound starting 1 to 4 days after the procedure, was based on review of the owner's description of the event, the veterinary medical record (if available), and therapeutic response to administration of antifibrinolytic drugs (if used). Dogs were excluded if the bleeding event occurred on the same day of surgery, or after more than 4 days following surgery.
The instant example utilizes the methods described in Example 1 to identify delayed postoperative bleeding cases in canines and controls. Completed health surveys from the owners of 260 Scottish deerhounds were reviewed to identify delayed postoperative bleeding cases and controls. Of the original 260 dogs evaluated, 105 dogs (40%) were identified that had undergone at least one surgical procedure, while 21 dogs (8%) had received two or more surgeries. Nine of 105 dogs (9%) with a surgical history were reported to have experienced postoperative bleeding and/or excessive bruising at least once after a surgical procedure. Of these, bleeding into the abdomen was first diagnosed within 8 hours after surgery in two dogs, while bleeding and/or bruising was not evident until at least the morning after surgery in the remaining 7 dogs. These latter 7 dogs were considered delayed postoperative bleeding cases and all had DNA samples available for case-control analysis. Of the 96 dogs that had undergone surgery without evidence for postoperative bleeding, 25 dogs (26%) had received prophylactic treatment with EACA, while 71 dogs (74%) had not received any antifibrinolytic drug. These latter 71 dogs were considered delayed postoperative bleeding controls. Of the 71 control dogs, 55 dogs had DNA samples available for case-control genetic analysis.
Case information for the seven dogs (SDH-1 to SDH-7) that met the inclusion/exclusion criteria for delayed postoperative bleeding are shown in Table 1.

[2] = tested on: delayed postoperative bleeding in greyhounds; conditions: 46 greyhounds, limb amputation for osteosarcoma, after introduction of the prophylactic treatment; cited from earlier work
canine plasmin = target: T1, canine plasmin (Canis lupus familiaris, UniProt P80009); assay: Plasmin inhibition assay (microplate-based colorimetric kinetic assay); format: biochemical; conditions: substrate D-VLK-pNA, 37° C., preliminary studies, FIG. 1, read-out: IC50, concentration-dependent inhibition of plasmin activity
T1 construct: purchased Molecular Innovation, Novi, MI DPLM
T1 sequence (P80009 104-333 limits assumed): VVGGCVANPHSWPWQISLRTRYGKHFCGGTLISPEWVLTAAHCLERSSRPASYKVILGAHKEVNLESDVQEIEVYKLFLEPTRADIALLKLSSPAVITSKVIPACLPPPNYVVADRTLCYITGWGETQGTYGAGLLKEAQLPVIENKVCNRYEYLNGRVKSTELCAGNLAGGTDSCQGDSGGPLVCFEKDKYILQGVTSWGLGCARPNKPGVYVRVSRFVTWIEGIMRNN
T1 sequence (P80009 with tags, fused parts or gaps partner limits assumed): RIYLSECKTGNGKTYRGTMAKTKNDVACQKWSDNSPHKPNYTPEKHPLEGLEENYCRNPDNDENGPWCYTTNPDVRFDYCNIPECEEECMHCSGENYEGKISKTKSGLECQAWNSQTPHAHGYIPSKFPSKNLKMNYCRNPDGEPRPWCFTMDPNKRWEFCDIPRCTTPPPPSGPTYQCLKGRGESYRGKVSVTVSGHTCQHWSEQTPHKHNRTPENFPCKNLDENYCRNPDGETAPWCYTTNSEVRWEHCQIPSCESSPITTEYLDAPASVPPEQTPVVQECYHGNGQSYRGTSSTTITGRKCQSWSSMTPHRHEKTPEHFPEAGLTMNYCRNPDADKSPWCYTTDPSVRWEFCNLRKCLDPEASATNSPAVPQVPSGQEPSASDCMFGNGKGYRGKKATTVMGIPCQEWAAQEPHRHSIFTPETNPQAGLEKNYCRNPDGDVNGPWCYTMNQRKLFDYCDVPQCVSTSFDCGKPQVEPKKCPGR
Method: A microplate-based colorimetric kinetic assay was developed and validated to measure the potency of inhibition of canine plasmin by plasma based on a previously published method. Briefly, 2 μL of canine plasma diluted to 50 μL in phosphate-buffered saline (PBS) was added on ice to 96-well UV clear nonbinding plates (Cat. #655901, Greiner Bio-One, Monroe, NC). Then, 50 μL of canine plasmin (Cat. #DPLM, Molecular Innovation, Novi, MI) at 100 nM concentration in 50 μL PBS was added, mixed by pipetting, and incubated at 37° C. for 5 min. To this, 100 μL of prewarmed plasmin substrate (D-VLK-pNA, Molecular Innovation, Novi, MI) at 200 μM concentration in PBS was added, mixed, and immediately placed in a colorimetric plate reader (SpectraMax i3, Molecular Devices, San Jose, CA) set at 37° C. Absorbance at 405 nm was then monitored in each well over the next 5 minutes. Plasmin hydrolysis activity for each well was calculated from the fitted linear slope of the absorbance versus time curve over 5 minutes.
Preliminary studies confirmed concentration-dependent inhibition of plasmin activity by the antifibrinolytic aprotinin (Cat. #A1153, Sigma Aldrich, St Louis, MO) with an IC50 of approximately 500 nM (see FIG. 1). Plasma collected in sodium citrate and pooled from 2 male and 2 female beagle dogs was obtained from a commercial vendor (Biochemed Services, Winchester, VA). […]

[3] = SDH-2, Day 1-evening (after aminocaproic acid), 750 mg intravenous infusion
[4] = prophylactic antifibrinolytic given, individual dogs SDH-3 and SDH-6

Compound: NCCCCCC(=O)O [EACA, 6-aminohexanoic acid]
hematocrit and platelet counts ([1]; by Day 5): within their normal range
hematocrit and platelet counts ([1]; next morning (Day 2)): significantly increased
Hematocrit (%) [1, 3]: 34.4%
Platelet count (×10^9/L) [1, 3]: 31 ×10^9/L
Hematocrit (%) ([1]; SDH-2, Day 2): 41.7%
Platelet count (×10^9/L) ([1]; SDH-2, Day 2): 125 ×10^9/L
Hematocrit (%) ([1]; SDH-2, Day 5): 51.9%
Platelet count (×10^9/L) ([1]; SDH-2, Day 5): 371 ×10^9/L
Hematocrit (%) ([1]; SDH-2, Week 5): 50.4%
Platelet count (×10^9/L) ([1]; SDH-2, Week 5): 276 ×10^9/L
bleeding after therapeutic treatment ([1]; SDH-3, castration, 500 mg orally every 8 hours for 5 days, with fluids, antibiotics, vitamin K): No further bleeding was observed
bruising or delayed postoperative bleeding after prophylactic treatment ([1]; SDH-3, splenectomy, 500 mg intravenous infusion during procedure then 500 mg oral every 8 hours for 5 days): No excessive bruising or delayed postoperative bleeding were observed
hematocrit ([1]; after one month): 60%
hematocrit ([1]; at discharge after 5 days (15% before)): 36%
bleeding after therapeutic treatment ([1]; SDH-6, sebaceous cyst removal, orally administered after bleeding): the bleeding resolved
postoperative bleeding or bruising after prophylactic treatment ([1]; SDH-6, skin abscess surgery, pre-operative oral dose): No postoperative bleeding or bruising was observed
bleeding after drug administration ([1]; dogs with delayed postoperative bleeding, EACA oral or injectable): stopped within hours
Delayed bleeding? [1, 4]: No
Outcome [1, 4]: No complications
Outcome ([1]; therapeutic antifibrinolytic given after delayed bleeding, individual dogs SDH-2 to SDH-6): Responded to antifibrinolytic
incidence of bleeding [2]: 16%

IC50 (canine plasmin): ~0.5 µM
Compound: aprotinin
